The subject of one data set is U-87 MG cells. The experiment in a line: Irradiation-induced cell death, flow cytometry. Particulars: 1-h prior to irradiation (10 Gy). Type of data set: cell-based, human. The procedure:
(§1) Cells were cultured in fresh medium prior to irradiation and were γ-irradiated with a Shepherd model 143-45A irradiator (J. L. Shepherd & Associates, CA) at a dose rate of 4 Gy/min. Cells were incubated with drugs at the indicated concentrations 1 h before or 30 min after irradiation. Cell viability was determined using phosphatidylserine (PS) externalization/propidium iodide (PI) permeabilization assay or LDH Assay after 72 h post-irradiation incubation.
(§2) After 72 h post-irradiation incubation, attached cells were harvested by trypsinization and pooled with detached cells from supernatant. Harvested cells were then stained with annexin-V-FITC and PI for 5 min in the dark prior to flow cytometry analysis (FACscan, Becton-Dickinson, Rutherford, N.J.). Cell debris was gated out by forward and side scatter under the same conditions, and a minimum of 10,000 gated cells were acquired. Percentages of annexin-V-positive cells were calculated by combining annexin V+/PI− (early apoptotic) and annexin V+/PI+ (late apoptotic or necrotic) cells.
(§3) Cells were exposed to γ-irradiation at different doses (10 or 25 Gy) based on their radiosensitivity. […] The mechanisms responsible for the differences in glyburide response are not known but are worthy of further investigation.

In the next data set the test system is BEAS-2B cells. The experiment in a line: Irradiation-induced cell death, flow cytometry. The data set is classed as cell-based, human. Particulars: 1-h prior to irradiation (10 Gy). The procedure: as §1, §2, §3
(In general: In flow cytometry, cells or beads pass a laser one at a time.)

A further data set deals with C57BL/6NHsd female mice. The experiment in a line: In vivo irradiation survival curves, total body irradiation. Also noted: species or system mouse. From the text:
Other groups of mice were control mice, or vehicle only irradiated mice.
The mice were followed for the development of irradiation induced damage to the hematopoietic system which occurs within the first 30 days after irradiation (FIG. 7).

The subject of a further data set is 32D cl 3 cells. The experiment in a line: In vitro irradiation survival curves (clonogenic survival assay). Type of data set: cell-based, mouse. The procedure: The cells were irradiated with doses ranging from 0 to 8 Gy. The 32D cl 3 cells were plated in methycellulose, incubated at 37° C. for one week at which time colonies of greater than 50 cells were counted (Epperly, M. W. et al. Mitochondrial localization of superoxide dismutase is required for decreasing radiation induced cell damage. Radiat. Res. 160, 568-578 (2003) and Epperly, M. W. et al. Ethyl pyruvate, a potentially effective total body irradiation damage mitigator. Radiat. Res. 168, 552-559 (2007)). The data were analyzed using linear quadratic and single-hit, multi-target models (Id.).

A further data set has as its system T98G cells. The data set is described as follows: Irradiation-induced cell death, PS externalization/PI permeabilization by flow cytometry. The data set is classed as cell-based, human. Particulars: for irradiation induced cell death (PS externalization/PI permeability): drug 1-h prior to 25 Gy γ-irradiation, glyburide 12.5-200 μM, 72 h post-irradiation. The procedure: as §1, §2
In the present study, we selected 10 chemicals that targeted 13 candidate siRNA gene transcripts for further study (Table 3). The radioprotective effects of the compounds were tested in T98G cells, which were initially used in the siRNA screen. […] The other nine chemicals lacked any obvious protective effect on γ-irradiation induced cell death under the current experimental conditions (FIG. 4A).

A further data set deals with HeLa cells. The experiment in a line: Irradiation-induced cell death, cell-based assay. Particulars: γ-irradiated (10 or 25 Gy), data not shown. Also on record: species or system human. The procedure:
as §1, §3

The next data set relates to KM101 cells. The experiment in a line: Irradiation-induced cell death, cell-based assay. Also on record: species or system human. Particulars: γ-irradiated (10 or 25 Gy), data not shown. The procedure:
as §1, §3

A further data set relates to H1299 cells. The experiment in a line: Irradiation-induced cell death, cell-based assay. Also on record: species or system human. Particulars: γ-irradiated (10 or 25 Gy), data not shown. The procedure: as §1, §3
The test system of another data set is human primary astrocytes. The data set is described as follows: Irradiation-induced cell death, LDH release assay. Particulars: 50 and 100 μM, 1-h prior to irradiation (25 Gy). Type of data set: cell-based. The procedure: as §1
For human primary astrocytes, cell viability was determined by assaying the medium from each sample for LDH activity according to the manufacturer's instructions (Sigma). The enzyme activity from the culture medium and floating cells were used as an index of cell death. To determine total LDH activity, the adherent cells were lysed in 0.5% Triton X-100 and assayed for LDH activity, this cell-associated LDH activity was then added to the LDH activity in the removed culture medium. The amount of LDH present in the medium was calculated as a percentage of the total, which was used to calculate the percent cell death in the corresponding samples.
as §3
(In general: LDH in the medium is a marker of cell lysis.)

Data set [1] in a line: Hypoglycemia at the dose of glyburide used in the present study. The data set is classed as in vivo.

“Also recorded” adds a separate entry of the source.

Regarding `COc1ccc(Cl)cc1C(=O)NCCc1ccc(S(=O)(=O)NC(=O)NC2CCCCC2)cc1` [glyburide, 5-chloro-N-[2-[4-(cyclohexylcarbamoylsulfamoyl)phenyl]ethyl]-2-methoxy-benzamide], the radioprotection entry in the data set with U-87 MG cells was “effective radioprotection”; in the data set on U-87 MG cells (listed as Glyburide), “effectively relieved irradiation induced cell death”; with BEAS-2B cells, “effective radioprotection”; in the data set with BEAS-2B cells (listed as Glyburide), “effectively relieved irradiation induced cell death”; with HeLa cells, “no protective effect; also recorded: only limited protection”; with KM101 cells, “no protective effect; also recorded: only limited protection”. In addition, the radioprotection entry in the data set on H1299 cells was “no protective effect; also recorded: only limited protection”; with human primary astrocytes it was “effective radioprotection”; in the data set on human primary astrocytes (listed as Glyburide) it was “effectively relieved irradiation induced cell death”. For the same compound, the “survival compared to irradiated controls” value in the data set with C57BL/6NHsd female mice (5 mg/kg i.p. 10 min after 9.5 Gy total body irradiation) was “no significant increase in survival; also recorded: not protected from irradiation”. The “survival compared to irradiated controls and vehicle only” value in the data set on C57BL/6NHsd female mice (5 mg/kg i.p. 10 min before 9.5 Gy total body irradiation, P=0.04) was “significantly increased survival; also recorded: protected as seen by an increase in survival; also recorded: increased the survival rate”. The mice survived with C57BL/6NHsd female mice (5 mg/kg intraperitoneal 10 min before 9.5 Gy total body irradiation) turned out to be 60%; with C57BL/6NHsd female mice (glyburide injected 10-min after 9.5 Gy total body irradiation) it was 44%. Further, the “n or shoulder on the irradiation survival curve” value in the data set on 32D cl 3 cells (10 μM in methylcellulose following irradiation (0-8 Gy)) is 2.5±0.9. In addition, the “survival of 32D cl 3 cells” value with 32D cl 3 cells (10 μM, 1-h before irradiation (0-8 Gy)) is “significantly increased the survival”. The “protection over a range of irradiation exposure” value with T98G cells (200 μM, 1-h prior to 5-25 Gy) is on record as “effectively protected cells”. The “irradiation induced apoptosis, post-irradiation treatment” value in the data set with T98G cells (added 30-min after γ-irradiation (25 Gy)) is recorded as “protected cells from irradiation induced apoptosis to a similar extent”. The “irradiation induced cell death (PS externalization/PI permeability)” value with T98G cells was “attenuated irradiation induced cell death in a concentration-dependent manner; also recorded: demonstrated radioprotective effect”; in the data set with T98G cells (listed as Glyburide), “effectively relieved irradiation induced cell death”. Moreover, the hypoglycemia entry in data set [1] was “did not cause hypoglycemia”.

Source of the values: patent publication US8883852B2, “Radioprotective agents” (University of Pittburgh—Of the Commonwealth System of …, priority 2008, dated 2014).
